The experiment has as its target T1, Interstitial collagenase (Homo sapiens, UniProt P03956).
T1 sequence (P03956 whole entry): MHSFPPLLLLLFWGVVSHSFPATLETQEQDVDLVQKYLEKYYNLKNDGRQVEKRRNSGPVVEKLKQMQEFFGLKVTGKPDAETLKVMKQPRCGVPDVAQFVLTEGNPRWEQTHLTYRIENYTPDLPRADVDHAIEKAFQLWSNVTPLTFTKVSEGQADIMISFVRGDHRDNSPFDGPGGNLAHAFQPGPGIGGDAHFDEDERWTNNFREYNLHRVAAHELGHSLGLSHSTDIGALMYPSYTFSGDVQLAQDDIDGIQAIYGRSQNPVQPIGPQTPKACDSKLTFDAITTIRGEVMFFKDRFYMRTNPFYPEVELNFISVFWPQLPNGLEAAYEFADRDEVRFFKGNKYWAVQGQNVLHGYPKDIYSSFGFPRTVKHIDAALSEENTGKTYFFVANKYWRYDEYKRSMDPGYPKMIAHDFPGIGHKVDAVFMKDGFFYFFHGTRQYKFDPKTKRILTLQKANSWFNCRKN

Consider `COCCN(C1(C(=O)NO)CN(C(=O)C(C)C)C1)S(=O)(=O)c1ccc(OCc2cc(C)nc3ccccc23)cc1`, for which the IC50 (commonly the concentration that inhibits the measured activity by half) was > 10 µM.

The values above are taken from ChEMBL document CHEMBL5727528, “Benzenesulfonamide compounds, method for synthesizing same, and use thereof in medicine and cosmetics” (2020).
